In assay [1] the test system is Tyrosine-protein kinase Blk (Homo sapiens), P51451 [UNDEFINED MUTATION]. The experiment in a line: Inhibition of recombinant full length human BLK M287V mutant assessed as residual activity at 10 uM using poly(Glu, Tyr) 4:1 as substrate incubated for 40 mins in presence of [gamma-33ATP] by scintillation counting based radiometry assay relative to control.
Assay [2] concerns the target Serine/threonine-protein kinase PAK 5 (Homo sapiens) (UniProt Q9P286). The experiment in a line: Inhibition of recombinant human PAK5 (425 to end residues) assessed as residual activity at 10 uM using RRRLSFAEPG as substrate measured after 40 mins in presence of [gamma33P]ATP by scintillation counting based radiometry assay relative to control.
For assay [3], the target named is Serine/threonine-protein kinase 25 (Homo sapiens) (UniProt O00506). The experiment in a line: Inhibition of recombinant human STK25 (1 to 308 residues) assessed as residual activity at 10 uM using RLGRDKYKTLRQIRQ as substrate incubated for 40 mins in presence of [gamma33P]ATP by scintillation counting based radiometry assay relative to control.
For assay [4], the target named is cAMP-dependent protein kinase catalytic subunit PRKX (Homo sapiens) (UniProt P51817). The experiment in a line: Inhibition of recombinant human full length PrKX assessed as residual activity at 10 uM using RRRLSFAEPG as substrate incubated for 40 mins in presence of [gamma33P]ATP by scintillation counting based radiometry assay relative to control.
cAMP-dependent protein kinase catalytic subunit PRKX (Homo sapiens), sequence (P51817 whole entry): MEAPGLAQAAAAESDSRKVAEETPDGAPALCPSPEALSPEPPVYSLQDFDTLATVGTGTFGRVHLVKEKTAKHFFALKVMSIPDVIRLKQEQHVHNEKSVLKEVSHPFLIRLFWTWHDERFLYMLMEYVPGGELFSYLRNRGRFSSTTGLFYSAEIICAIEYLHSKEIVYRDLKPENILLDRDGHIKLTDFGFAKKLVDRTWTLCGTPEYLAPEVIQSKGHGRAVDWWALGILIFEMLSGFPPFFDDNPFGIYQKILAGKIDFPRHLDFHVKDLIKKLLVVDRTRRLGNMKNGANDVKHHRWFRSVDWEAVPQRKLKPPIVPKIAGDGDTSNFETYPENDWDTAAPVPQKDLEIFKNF
In assay [5] the target is Protein-tyrosine kinase 6 (Homo sapiens) (UniProt Q13882). The experiment in a line: Inhibition of recombinant full length human BRK assessed as residual activity at 10 uM using poly(Glu, Tyr) 4:1 as substrate incubated for 40 mins in presence of [gamma-33ATP] by scintillation counting based radiometry assay relative to control.
Protein-tyrosine kinase 6 (Homo sapiens), sequence (Q13882 whole entry, looked up): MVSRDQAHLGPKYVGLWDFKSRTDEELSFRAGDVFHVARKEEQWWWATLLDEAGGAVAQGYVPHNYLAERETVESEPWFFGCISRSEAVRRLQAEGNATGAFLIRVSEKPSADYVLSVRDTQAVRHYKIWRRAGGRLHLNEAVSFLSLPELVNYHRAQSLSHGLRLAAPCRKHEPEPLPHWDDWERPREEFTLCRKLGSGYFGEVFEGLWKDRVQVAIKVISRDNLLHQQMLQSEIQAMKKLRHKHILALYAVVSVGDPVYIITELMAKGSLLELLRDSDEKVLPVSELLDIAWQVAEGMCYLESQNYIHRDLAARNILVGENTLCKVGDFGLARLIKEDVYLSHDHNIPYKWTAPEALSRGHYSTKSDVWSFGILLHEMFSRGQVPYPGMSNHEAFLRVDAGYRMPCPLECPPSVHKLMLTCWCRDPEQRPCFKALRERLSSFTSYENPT
In assay [6] the test system is Tyrosine-protein kinase ABL1 (Homo sapiens), P00519 [T315I]. The experiment in a line: Inhibition of human ABL1 T315I mutant (27 to end residues) assessed as residual activity at 10 uM using EAIYAAPFAKKK as substrate incubated for 40 mins in presence of [gamma-33ATP] by scintillation counting based radiometry assay relative to control.
For assay [7], the system named is CDK18/Cyclin Y (Homo sapiens), Q07002+Q8ND76 [T166M]. The experiment in a line: Inhibition of recombinant full length human CDK18/cyclinY T166M mutant assessed as residual activity at 10 uM using YRRAAVPPSPSLS as substrate incubated for 40 mins in presence of [gamma-33ATP] by scintillation counting based radiometry assay relative to control. The format is protein-complex assay.

For assay [8], the target named is Ribosomal protein S6 kinase alpha-1 (Homo sapiens) (UniProt Q15418). The experiment in a line: Inhibition of recombinant full length human Rsk1 assessed as residual activity at 10 uM using KKKNRTLSVA as substrate incubated for 40 mins in presence of [gamma33P]ATP by scintillation counting based radiometry assay relative to control.
Ribosomal protein S6 kinase alpha-1 (Homo sapiens), sequence (Q15418 whole entry): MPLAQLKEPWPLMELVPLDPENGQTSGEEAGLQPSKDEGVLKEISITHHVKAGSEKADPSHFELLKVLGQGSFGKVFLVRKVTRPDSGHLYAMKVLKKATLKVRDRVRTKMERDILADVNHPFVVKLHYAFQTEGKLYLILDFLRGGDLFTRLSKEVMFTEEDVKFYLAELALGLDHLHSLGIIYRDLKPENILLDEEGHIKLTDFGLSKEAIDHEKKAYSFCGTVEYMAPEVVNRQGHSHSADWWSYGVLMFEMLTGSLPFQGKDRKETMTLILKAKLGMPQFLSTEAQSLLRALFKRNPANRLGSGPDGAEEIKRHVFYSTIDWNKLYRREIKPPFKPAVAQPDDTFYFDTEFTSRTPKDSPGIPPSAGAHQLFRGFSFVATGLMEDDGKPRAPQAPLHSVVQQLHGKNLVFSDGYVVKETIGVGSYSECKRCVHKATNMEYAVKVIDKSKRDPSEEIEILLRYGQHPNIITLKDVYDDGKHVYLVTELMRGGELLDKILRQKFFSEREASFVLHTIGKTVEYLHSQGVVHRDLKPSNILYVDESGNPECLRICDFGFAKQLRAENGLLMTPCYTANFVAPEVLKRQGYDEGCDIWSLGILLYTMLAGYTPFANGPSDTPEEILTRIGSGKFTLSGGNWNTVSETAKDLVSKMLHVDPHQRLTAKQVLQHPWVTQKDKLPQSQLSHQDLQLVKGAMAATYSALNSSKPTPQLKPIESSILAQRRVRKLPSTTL
Assay [9] deals with FKBP12A/mTOR (Homo sapiens) (UniProt P62942+P42345). The experiment in a line: Inhibition of recombinant full length human mTOR/FKBP12 assessed as residual activity at 10 uM measured after 40 mins in presence of [gamma33P]ATP by scintillation counting based radiometry assay relative to control. Format: protein-complex assay.
The target of assay [10] is Mitogen-activated protein kinase kinase kinase 20 (Homo sapiens) (UniProt Q9NYL2). The experiment in a line: Inhibition of recombinant full-length human ZAK assessed as residual activity at 10 uM using MBP as substrate incubated for 40 mins in presence of [gamma33P]ATP by scintillation counting based radiometry assay relative to control.
Assay [11] concerns Phosphorylase b kinase gamma catalytic chain, liver/testis isoform (Homo sapiens), P15735 [F290L]. The experiment in a line: Inhibition of recombinant human PhKgamma2 F290L mutant (1 to 301 residues) assessed as residual activity at 10 uM using KKLNRTLSFAEPG as substrate incubated for 40 mins in presence of [gamma33P]ATP by scintillation counting based radiometry assay relative to control.

The target of assay [12] is Tyrosine-protein kinase HCK (Homo sapiens) (UniProt P08631). The experiment in a line: Inhibition of human HCK (230 to 497 residues) assessed as residual activity at 10 uM using Cdc2 peptide as substrate after 40 mins by [gamma-33ATP] radiometric assay relative to control.
Tyrosine-protein kinase HCK (Homo sapiens), sequence (P08631 2-526 limits assumed): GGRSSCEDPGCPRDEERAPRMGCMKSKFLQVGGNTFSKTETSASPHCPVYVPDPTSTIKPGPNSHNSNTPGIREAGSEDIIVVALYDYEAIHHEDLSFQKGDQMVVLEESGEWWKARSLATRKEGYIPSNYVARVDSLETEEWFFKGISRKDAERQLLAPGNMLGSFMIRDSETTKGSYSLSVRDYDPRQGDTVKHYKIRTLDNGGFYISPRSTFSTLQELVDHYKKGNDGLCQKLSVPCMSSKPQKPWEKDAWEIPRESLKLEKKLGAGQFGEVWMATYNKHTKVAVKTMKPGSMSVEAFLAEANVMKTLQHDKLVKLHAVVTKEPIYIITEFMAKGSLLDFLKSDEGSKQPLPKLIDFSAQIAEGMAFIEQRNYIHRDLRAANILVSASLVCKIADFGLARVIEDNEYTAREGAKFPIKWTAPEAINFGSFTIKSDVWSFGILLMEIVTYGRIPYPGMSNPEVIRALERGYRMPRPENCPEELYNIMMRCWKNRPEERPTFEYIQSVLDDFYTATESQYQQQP
The target in assay [13] is Platelet-derived growth factor receptor alpha (Homo sapiens) (UniProt P16234). The experiment in a line: Inhibition of human PDGFRalpha (550 to end residues) assessed as residual activity at 10 uM using poly(Glu, Tyr) 4:1 as substrate measured after 40 mins in presence of [gamma33P]ATP by scintillation counting based radiometry assay relative to control.
Platelet-derived growth factor receptor alpha (Homo sapiens), sequence (P16234 whole entry): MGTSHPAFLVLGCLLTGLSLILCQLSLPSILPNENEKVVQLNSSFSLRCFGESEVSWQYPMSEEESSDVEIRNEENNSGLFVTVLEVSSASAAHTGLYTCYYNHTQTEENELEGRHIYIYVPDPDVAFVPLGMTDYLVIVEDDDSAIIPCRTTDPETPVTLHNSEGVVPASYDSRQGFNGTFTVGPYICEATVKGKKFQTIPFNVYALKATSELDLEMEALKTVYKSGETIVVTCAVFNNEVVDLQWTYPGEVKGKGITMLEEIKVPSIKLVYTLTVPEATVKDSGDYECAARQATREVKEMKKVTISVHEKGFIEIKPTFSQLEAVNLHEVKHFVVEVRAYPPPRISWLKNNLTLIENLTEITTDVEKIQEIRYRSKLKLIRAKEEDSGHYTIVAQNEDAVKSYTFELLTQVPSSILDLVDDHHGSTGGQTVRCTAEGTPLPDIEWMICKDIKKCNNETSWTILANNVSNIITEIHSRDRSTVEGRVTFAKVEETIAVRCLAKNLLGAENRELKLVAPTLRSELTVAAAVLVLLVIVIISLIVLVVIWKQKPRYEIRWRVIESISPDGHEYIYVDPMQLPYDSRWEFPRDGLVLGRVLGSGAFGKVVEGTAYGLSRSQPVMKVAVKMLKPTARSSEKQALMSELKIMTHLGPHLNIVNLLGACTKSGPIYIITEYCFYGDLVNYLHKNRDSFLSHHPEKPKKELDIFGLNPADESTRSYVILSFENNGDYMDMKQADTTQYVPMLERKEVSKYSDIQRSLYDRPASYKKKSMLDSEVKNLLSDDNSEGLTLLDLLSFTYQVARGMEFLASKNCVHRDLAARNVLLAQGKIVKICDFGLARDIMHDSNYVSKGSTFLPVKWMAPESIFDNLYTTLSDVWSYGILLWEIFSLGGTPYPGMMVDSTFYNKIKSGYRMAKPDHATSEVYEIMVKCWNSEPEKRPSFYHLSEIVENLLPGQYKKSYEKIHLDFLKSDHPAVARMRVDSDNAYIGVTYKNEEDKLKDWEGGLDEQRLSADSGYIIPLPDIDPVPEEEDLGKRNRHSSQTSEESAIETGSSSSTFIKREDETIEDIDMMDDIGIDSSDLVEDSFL
Assay [14] addresses Tyrosine-protein kinase ABL2 (Homo sapiens) (UniProt P42684). The experiment in a line: Inhibition of human Arg (38 to end residues) assessed as residual activity at 10 uM using EAIYAAPFAKKK as substrate incubated for 40 mins in presence of [gamma-33ATP] by scintillation counting based radiometry assay relative to control.
In assay [15] the target is Serine/threonine-protein kinase TAO2 (Homo sapiens) (UniProt Q9UL54). The experiment in a line: Inhibition of recombinant human TAO2 (1 to 320 residues) assessed as residual activity at 10 uM using myelin basic protein as substrate incubated for 40 mins in presence of [gamma33P]ATP by scintillation counting based radiometry assay relative to control.
Assay [16] deals with Serine/threonine-protein kinase TBK1 (Homo sapiens) (UniProt Q9UHD2). The experiment in a line: Inhibition of recombinant full length human TBK1 assessed as residual activity at 10 uM using KRRRALS(p)VASLPGL as substrate incubated for 40 mins in presence of [gamma33P]ATP by scintillation counting based radiometry assay relative to control.
Assay [17] deals with Phosphatidylinositol 5-phosphate 4-kinase type-2 alpha (Homo sapiens) (UniProt P48426). The experiment in a line: Inhibition of recombinant full-length human PIP4K2alpha assessed as residual activity at 10 uM using phosphatidylinositol 5-phosphate as substrate by HTRF assay relative to control.
The target in assay [18] is cGMP-dependent protein kinase 1 (Homo sapiens) (UniProt Q13976). The experiment in a line: Inhibition of recombinant full-length human PKG1alpha assessed as residual activity at 10 uM using RRRLSFAEPG as substrate incubated for 40 mins in presence of [gamma33P]ATP by scintillation counting based radiometry assay relative to control.
In assay [19] the target is Ribosomal protein S6 kinase alpha-2 (Homo sapiens) (UniProt Q15349). The experiment in a line: Inhibition of recombinant full length human Rsk3 assessed as residual activity at 10 uM using KKKNRTLSVA as substrate incubated for 40 mins in presence of [gamma33P]ATP by scintillation counting based radiometry assay relative to control.
The species named for the next assay is Mus musculus. The experiment in a line: Inhibition of recombinant full length mouse PI3K p110/p65 assessed as residual activity at 10 uM using phosphatidylinositol-4, 5-bisphosphate as substrate incubated for 40 mins in presence of [gamma33P]ATP by scintillation counting based radiometry assay relative to control.
Assay [20] concerns the target Receptor-type tyrosine-protein kinase FLT3 (Homo sapiens) (UniProt P36888). The experiment in a line: Inhibition of recombinant human FLT3 (564 to end residues) assessed as residual activity at 10 uM using EAIYAAPFAKKK as substrate at 40 mins in presence of [gamma-33ATP] by scintillation counting based radiometry assay relative to control.

Tyrosine-protein kinase ABL2 (Homo sapiens), sequence (P42684 whole entry, the tested form may be a part): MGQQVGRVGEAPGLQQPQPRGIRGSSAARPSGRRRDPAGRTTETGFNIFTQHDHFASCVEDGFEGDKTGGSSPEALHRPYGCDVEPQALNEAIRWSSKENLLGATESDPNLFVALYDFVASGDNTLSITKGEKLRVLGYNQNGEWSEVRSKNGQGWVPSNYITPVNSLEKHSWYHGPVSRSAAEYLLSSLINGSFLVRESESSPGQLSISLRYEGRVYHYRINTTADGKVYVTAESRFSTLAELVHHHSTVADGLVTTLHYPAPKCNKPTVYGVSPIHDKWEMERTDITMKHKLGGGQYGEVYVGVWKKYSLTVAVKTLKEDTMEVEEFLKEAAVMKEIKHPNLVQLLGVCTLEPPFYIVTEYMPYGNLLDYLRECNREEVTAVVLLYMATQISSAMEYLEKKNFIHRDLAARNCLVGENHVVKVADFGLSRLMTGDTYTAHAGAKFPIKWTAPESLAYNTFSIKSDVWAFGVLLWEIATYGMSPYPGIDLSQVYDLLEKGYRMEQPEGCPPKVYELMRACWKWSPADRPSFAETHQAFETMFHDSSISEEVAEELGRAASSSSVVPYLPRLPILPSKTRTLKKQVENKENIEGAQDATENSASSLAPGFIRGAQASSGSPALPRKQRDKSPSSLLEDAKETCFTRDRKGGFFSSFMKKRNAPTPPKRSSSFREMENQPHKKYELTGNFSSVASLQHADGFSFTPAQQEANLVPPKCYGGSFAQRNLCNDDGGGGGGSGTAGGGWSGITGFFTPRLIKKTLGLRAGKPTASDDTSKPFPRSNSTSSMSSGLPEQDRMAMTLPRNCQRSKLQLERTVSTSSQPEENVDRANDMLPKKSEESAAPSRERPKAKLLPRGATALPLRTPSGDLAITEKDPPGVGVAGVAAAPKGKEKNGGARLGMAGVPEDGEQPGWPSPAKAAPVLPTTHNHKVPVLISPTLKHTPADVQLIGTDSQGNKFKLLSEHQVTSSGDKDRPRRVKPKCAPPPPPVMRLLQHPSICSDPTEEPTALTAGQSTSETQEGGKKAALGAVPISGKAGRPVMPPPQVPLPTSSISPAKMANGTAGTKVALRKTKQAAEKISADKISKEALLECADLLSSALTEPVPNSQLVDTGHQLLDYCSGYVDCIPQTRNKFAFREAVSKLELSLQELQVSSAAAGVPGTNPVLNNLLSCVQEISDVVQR
Serine/threonine-protein kinase PAK 5 (Homo sapiens), sequence (Q9P286 whole entry, looked up, the tested form may be a part): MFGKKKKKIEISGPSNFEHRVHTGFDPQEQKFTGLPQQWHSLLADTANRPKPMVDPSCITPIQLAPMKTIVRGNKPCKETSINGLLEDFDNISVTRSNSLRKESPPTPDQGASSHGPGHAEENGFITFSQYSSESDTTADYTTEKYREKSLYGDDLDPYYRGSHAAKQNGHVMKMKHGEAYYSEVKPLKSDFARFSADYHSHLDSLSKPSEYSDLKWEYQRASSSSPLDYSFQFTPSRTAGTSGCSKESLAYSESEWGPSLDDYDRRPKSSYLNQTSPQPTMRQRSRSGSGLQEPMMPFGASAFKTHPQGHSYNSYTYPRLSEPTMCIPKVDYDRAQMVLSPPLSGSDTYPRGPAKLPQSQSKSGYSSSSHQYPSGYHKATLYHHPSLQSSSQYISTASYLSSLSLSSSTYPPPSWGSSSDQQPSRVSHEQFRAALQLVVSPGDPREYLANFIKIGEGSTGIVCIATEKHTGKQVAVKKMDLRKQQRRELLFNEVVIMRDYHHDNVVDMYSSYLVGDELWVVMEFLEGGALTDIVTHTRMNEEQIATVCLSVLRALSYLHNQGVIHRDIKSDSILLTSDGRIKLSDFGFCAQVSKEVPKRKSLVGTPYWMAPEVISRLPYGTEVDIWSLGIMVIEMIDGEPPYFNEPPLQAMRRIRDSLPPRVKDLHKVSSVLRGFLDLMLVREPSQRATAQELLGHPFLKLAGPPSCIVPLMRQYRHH

As to `C[C@@H](c1ccccc1)n1nnc2cnc3ccc(-c4cnc5[nH]ccc5c4)cc3c21`, the Activity is 8% in [1]; 90% in assay [2]; 76% in [3]; 97% in assay [4]; 21% in assay [5]; 110% in assay [6]. Further, the Activity in assay [7] was 94%; in assay [8], 46%; in assay [9], -1%; in assay [10] it was 8%; in assay [11] it was 65%; in [12] it was 9%. Further, the Activity in assay [13] turned out to be 95%; in assay [14] it was 1%; in assay [15], 85%; in assay [16], 85%; in assay [17], 95%; in [18], 70%. Further, the Activity worked out at 93% in assay [19], 14% in the assay listed under Mus musculus and 28% in assay [20].

The values above are taken from ChEMBL document CHEMBL4334471, “Discovery of 1,8-disubstituted-[1,2,3]triazolo[4,5-c]quinoline derivatives as a new class of Hippo signaling pathway inhibitors” (Bioorg Med Chem Lett, 2019).
